Data set [1] can be described thus: Particle size distribution of spray dried granisetron fine powder by Malvern Mastersizer. Particulars: typical particle size distribution.
Data set [2] is described as follows: Particle size distribution of jet milled granisetron fine powder by Malvern Spraytec.
Data set [3] can be described thus: Solubility of granisetron in pMDI medium. In kind it is physicochemical. How it is done: The solubility of granisetron was measured in a pMDI medium of HFA 134 as well as a mixture of HFA 134 and ethanol.

Values after ≈ are worked out from the molar mass of the structure shown. Values joined by “and” are separate entries in the source; they are usually repeats but may differ in a detail not shown here. Equal entries are not always repeated. Where two headings read alike, the source gives them in different places.

As a reminder, the solubility is how much of the substance goes into solution per volume.

Take `CN1C2CCCC1CC(NC(=O)c1nn(C)c3ccccc13)C2` (stereo not shown) [Spray Dried Granisetron Fine Powder, granisetron]: in data set [1], the “Cumulative % on <9 μm” value is given as 98.0%, the D10 came out at 1.01 μm, the D50 stood at 2.33 μm and the D90 was found to be 5.34 μm.

`CN1C2CCCC1CC(NC(=O)c1nn(C)c3ccccc13)C2.Cl` (stereo not shown) [jet milled granisetron, Granisetron HCl]: the “mass less than 5 μm in diameter” value in data set [2] (after fifth milling cycle) was “approximately 75%”. Further, the D10 in data set [2] (milling cycle 0) is 3.77 μm; in data set [2] (milling cycle 1) it was 2.22 μm; in data set [2] (milling cycle 3) it was 1.44 μm; in data set [2] (milling cycle 5), 1.59 μm. Further, the D50 is given as 50.21 μm in data set [2] (milling cycle 0), 7.01 μm in data set [2] (milling cycle 1), 3.99 μm in data set [2] (milling cycle 3) and 3.79 μm in data set [2] (milling cycle 5). Besides, the D90 in data set [2] (milling cycle 0) stood at 445.02 μm; in data set [2] (milling cycle 1) it was 20.59 μm; in data set [2] (milling cycle 3), 9.90 μm; in data set [2] (milling cycle 5), 8.13 μm.

Regarding `CN1C2CCCC1CC(NC(=O)c1nn(C)c3ccccc13)C2` (stereo not shown) [granisetron], the “Solubility, single determinations” value was 74.29 µg/mL and 97.99 µg/mL and 73.93 µg/mL in data set [3] (HFA 134a with Ethanol (9:1), 10 days); 84.173 µg/mL and 81.496 µg/mL in data set [3] (HFA 134a with Ethanol (9:1), ~24 Hours); 14.84 µg/mL and 10.26 µg/mL and 11.51 µg/mL and 15.77 µg/mL in data set [3] (HFA 134a, 10 days). Besides, the Solubility in data set [3] (HFA 134a, 24 hours, converted with gravity 1.21 g/mL) came out at 0.00018 % w/w; in data set [3] (HFA 134a, 10 days, converted with gravity 1.21 g/mL) it was 0.00108 % w/w; in data set [3] (HFA 134 and ethanol, 24 hours), 0.00706 % w/w; in data set [3] (HFA 134 and ethanol, 10 days), 0.00681 % w/w; in data set [3] (pMDI medium (HFA 134a propellant), organic solvent or mixture, HFA 134a, ~24 Hours, read-out: Solubility, Average (RSD)), 2.17 µg/mL (≈ 6.95 µM); in data set [3] (pMDI medium (HFA 134a with ethanol), organic solvent or mixture, HFA 134a with Ethanol (9:1), ~24 Hours, read-out: Solubility, Average (RSD)), 85.5 µg/mL (≈ 274 µM). Besides, the Solubility in data set [3] (pMDI medium (HFA 134a with ethanol), organic solvent or mixture, HFA 134a with Ethanol (9:1), ~24 Hours, read-out: Solubility, single determinations) stood at 90.8 µg/mL (≈ 291 µM). Also, the solubility at 10 days in data set [3] (pMDI medium (HFA 134a propellant), organic solvent or mixture, HFA 134a, 10 days, read-out: Solubility, Average (RSD)) was 13.1 µg/mL (≈ 42 µM); in data set [3] (pMDI medium (HFA 134a propellant), organic solvent or mixture, HFA 134a, 10 days, read-out: Solubility, single determinations), 13.2 µg/mL (≈ 42.1 µM); in data set [3] (pMDI medium (HFA 134a with ethanol), organic solvent or mixture, HFA 134a with Ethanol (9:1), 10 days, read-out: Solubility, Average (RSD)), 82.4 µg/mL (≈ 264 µM); in data set [3] (pMDI medium (HFA 134a with ethanol), organic solvent or mixture, HFA 134a with Ethanol (9:1), 10 days, read-out: Solubility, single determinations) it was 79.9 µg/mL (≈ 256 µM).

Values taken from US9918971B2, “Aerosol formulations of granisetron and uses thereof” (LUXENA PHARMACEUTICALS, INC., priority 2013, dated 2018).
